Measurements reported in the RepoRT retention time repository (doi:10.1002/rcm.4015).

Test: RP, Thermo Scientific Hypersil GOLD, 5 × 2.1 mm, 1.9 µm, 45 °C, 0.25 mL/min, estimated dead time 0.044 min; A: water + 0.1% formic acid, pH 3; B: 50% acetonitrile + 50% isopropanol + 0.1% formic acid, pH 3; gradient (min/%B) 0/5 0.5/5 5/50 5.5/95 6.5/95 10/5
Details: stereoisomer not certain

| LC retention time | Structure (SMILES) |
| --- | --- |
| 7.41 min | CCCCCC=CCC=CCC=CCC=CCC=CCCC(=O)OC(COC(=O)CCCCCCCCCCCCCCC)COP(=O)([O-])OCC[N+](C)(C)C (stereo not given) [PC(38:5)] |
| 7.38 min | CCCCCC=CCC=CCC=CCC=CCCCC(=O)OC(COC(=O)CCCCCC=CCCCCCCCC)COP(=O)([O-])OCC[N+](C)(C)C (stereo not given) [PC(36:5)] |
| 7.4 min | CCCCCC=CCC=CCC=CCC=CCC=CCCC(=O)OC(COC(=O)CCCCCCCCCCCCCCCCC)COP(=O)([O-])OCC[N+](C)(C)C (stereo not given) [PC(40:5)] |
| 6.8 min | CCCCCCCCC=CCC=CCC=CCCCC(=O)OCC(O)COP(=O)([O-])OCC[N+](C)(C)C (stereo not given) [lysoPC(20:3)] |
| 7.1 min | CCCCCCCCC=CCCCCCCCCOCC(O)COP(=O)([O-])OCC[N+](C)(C)C (stereo not given) [lysoPC(O-18:1)] |
| 6.97 min | CCCCCC=CCC=CCC=CCC=CCCCC(=O)OC(COC(=O)CCCCCCCCCCCCC)COP(=O)([O-])OCC[N+](C)(C)C (stereo not given) [PC(34:4)] |
| 7.4 min | CCC=CCC=CCC=CCCCCCCCC(=O)OC(COC(=O)CCCCCCCCCCCCCCC)COP(=O)([O-])OCC[N+](C)(C)C (stereo not given) [PC(34:3)] |
| 7.4 min | CCCCCC=CCC=CCC=CCC=CCCCCCC(=O)OC(COC(=O)CCCCCCCCCCCCCCC)COP(=O)([O-])OCC[N+](C)(C)C (stereo not given) [PC(38:4)] |
| 7.39 min | CCC=CCC=CCC=CCC=CCC=CCC=CCCC(=O)OC(COC(=O)CCCCCCCCCCCCCCC)COP(=O)([O-])OCC[N+](C)(C)C (stereo not given) [PC(38:6)] |
| 7.4 min | CCCCCC=CCC=CCC=CCCCCC(=O)OCC(COP(=O)([O-])OCC[N+](C)(C)C)OC(=O)CCCCCCCCCCCCCCCCCCC (stereo not given) [PC(38:3)] |
| 6.59 min | CCC=CCC=CCC=CCCCCCCCC(=O)OCC(O)COP(=O)([O-])OCC[N+](C)(C)C (stereo not given) [lysoPC(18:3)] |
| 6.89 min | CCCCCC=CCC=CCCCCCCCCCC(=O)OC(COC(=O)CCCCCCCCCCCCC)COP(=O)([O-])OCC[N+](C)(C)C (stereo not given) [PC(34:2)] |
| 6.65 min | CCC=CCC=CCC=CCC=CCC=CCC=CCCC(=O)OCC(O)COP(=O)([O-])OCC[N+](C)(C)C (stereo not given) [lysoPC(22:6)] |
| 7.23 min | CCCCCCCCC=CCCCCCCCC(=O)OC(COC(=O)CCCCCCCCCCCCCCC)COP(=O)([O-])OCC[N+](C)(C)C (stereo not given) [PC(34:1)] |
| 6.67 min | CCCCCCC=CCCCCCCCC(=O)OCC(O)COP(=O)([O-])OCC[N+](C)(C)C (stereo not given) [lysoPC(16:1)] |
| 6.55 min | CCC=CCC=CCC=CCC=CCC=CCCCC(=O)OCC(O)COP(=O)([O-])OCC[N+](C)(C)C (stereo not given) [lysoPC(20:5)] |
| 6.75 min | CCCCCCCCCCCCCCCCCC(=O)OCC(O)COP(=O)(O)OCCN (stereo not given) [lysoPE(18:0)] |
| 6.69 min | CCCCCCCCCCCCCC=CC(O)C(COP(=O)([O-])OCC[N+](C)(C)C)NC(=O)CCCCCCCCCCCCCC (stereo not given) [SM(33:1)] |
| 7.37 min | CCC=CCC=CCC=CCC=CCC=CCC=CCCC(=O)OC(COC(=O)CCCCCC=CCCCCCCCC)COP(=O)([O-])OCC[N+](C)(C)C (stereo not given) [PC(38:7)] |
| 6.93 min | CCCCCCCCC=CCCCCCCCC(=O)OCC(O)COP(=O)([O-])OCC[N+](C)(C)C (stereo not given) [lysoPC(18:1)] |
| 7.4 min | CCCCCC=CCC=CCC=CCC=CCCCCCC(=O)OCC(COP(=O)([O-])OCC[N+](C)(C)C)OC(=O)CCCCC=CCC=CCC=CCCCCC (stereo not given) [PC(40:7)] |
| 6.89 min | CCCCCCCCCCCCCCCC(=O)OCC(O)COP(=O)([O-])OCC[N+](C)(C)C (stereo not given) [lysoPC(16:0)] |
| 7.14 min | CCC=CCC=CCC=CCC=CCC=CCC=CCCC(=O)OC(COC(=O)CCCCCCCCCCCCCCCCC)COP(=O)([O-])OCC[N+](C)(C)C (stereo not given) [PC(40:6)] |

| Structure (SMILES) | LC retention time |
| --- | --- |
| CCCCCC=CCC=CCC=CCC=CCCCC(=O)OC(COC(=O)CCCCCCCCCCCCCCC)COP(=O)(O)OCC[N+](C)(C)C (stereo not given) [PC(36:4)] | 7.43 min |
| CCCCCCCCCCCCCC(=O)OCC(O)COP(=O)([O-])OCC[N+](C)(C)C (stereo not given) [lysoPC(14:0)] | 6.62 min |
| CCCCCCCCCCCCCCCCOCC(O)COP(=O)([O-])OCC[N+](C)(C)C (stereo not given) [lysoPC(O-16:0)] | 7.08 min |
| CCCCCC=CCC=CCCCCCCCC(=O)OCC(O)COP(=O)([O-])OCC[N+](C)(C)C (stereo not given) [lysoPC(18:2)] | 6.72 min |
| CCCCCC=CCC=CCC=CCC=CCCCC(=O)OCC(O)COP(=O)([O-])OCC[N+](C)(C)C (stereo not given) [lysoPC(20:4)] | 6.69 min |
| CCCCCCCCC=CCCCCCCCC(=O)OCC(O)COP(=O)(O)OCCN (stereo not given) [lysoPE(18:1)] | 6.92 min |
| CCCCCC=CCC=CCC=CCC=CCCCC(=O)OCC(O)COP(=O)(O)OCCN (stereo not given) [lysoPE(20:4)] | 6.69 min |
